# In PMC3516535, “Rhesus Macaque Theta Defensins Suppress Inflammatory Cytokines and Enhance Survival in Mouse Models of Bacteremic Sepsis” (PLoS ONE, 2012):
# Bridge positions count the residues as written; N and C are the ends. Ends that are not written are not given here. Peptide text beside a SMILES is read from it.
# Legend:
# [1] = system: human EDTA-anti-coagulated blood diluted 1∶10; experiment: TNF release assay in stimulated diluted whole blood (ELISA); type: cell-based; conditions: 4 h; for anti-TNF effectiveness relative to RTD-1 / hierarchy of anti-TNF potencies: E. coli-stimulated blood, N = 2
# THP-1 monocytic cells = experiment: TNF release assay in LPS-stimulated THP-1 monocytes (ELISA); type: cell-based, human; conditions: 4 h, N = 2; for hierarchy of anti-TNF potencies: THP-1 in RPMI +5% human EDTA-plasma, 1 ng/ml K12 LPS
# Method: THP-1 monocytic cells (ATCC, Manassas, VA) were grown and maintained in RPMI-1640 medium containing 10% fetal bovine serum and penicillin/streptomycin. Cells were harvested by centrifugation, washed with RPMI-1640 medium and suspended at 5×10^5 cells/ml in fresh medium containing 5% human EDTA plasma.
# Peptides (RTDs 1–5, human neutrophil α-defensins) were aliquoted into wells of pyrogen-free 12- or 24-well plates wherein final peptide concentrations were 0–10 µg/ml. Wells were inoculated with 1×10^5 CFU/ml S. aureus or 100 CFU/ml E. coli, or 1–3 ng/ml of E. coli K12 LPS. Samples (5–10 µl) containing peptide or bacteria/LPS were placed on opposite sides of the plate well. Mixing commenced with the addition of 0.5 to 2.0 ml of 1∶10 diluted blood, PBLs (5×10^5/ml), or THP-1 cells (2–5×10^5 cells/ml). Plates were incubated at 37°C in 5% CO2 for 4 h with gentle mixing. […] Incubation mixtures were centrifuged at 200× g for 10 min at 22°C and supernatants were clarified by centrifugation at 23,000× g for 15 min at 4°C. Supernatant TNF was quantified by sandwich ELISA (OptEIA II; BD Biosciences; Hu TNF-α, Invitrogen) per suppliers’ directions, using a SpectraMax Plate Reader.
# lethal bacteremia = conditions: single systemic administration at time of bacterial challenge; cited from earlier work
# Excerpt: The macrocyclic structure of θ-defensins confers remarkable stability. […] RTD-1 was also well-tolerated when administered intravenously or subcutaneously to mice, rats, and chimpanzees. Following repeated injections, neither of two chimpanzees produced anti-RTD-1 antibody. […] The discovery of antimicrobial peptides and their proven roles in host defense has prompted studies to evaluate dive ...
# CLP sepsis = system: CLP sepsis; parameters: method as in PMID 12545019; conditions: multiple doses; cited from earlier work
Molecule,anti-TNF effectiveness relative to RTD-1 [1],hierarchy of anti-TNF potencies [1],hierarchy of anti-TNF potencies (THP-1 monocytic cells),other results
"CC(C)C[C@@H]1NC(=O)[C@@H]2CSSC[C@H](NC(=O)[C@H](CCCNC(=N)N)NC(=O)[C@@H]3CSSC[C@H](NC1=O)C(=O)N[C@@H](CCCNC(=N)N)C(=O)N[C@@H](CCCNC(=N)N)C(=O)NCC(=O)N[C@@H](C(C)C)C(=O)N3)C(=O)N[C@@H](CC(C)C)C(=O)N[C@H]1CSSC[C@H](NC(=O)[C@H](C(C)C)NC(=O)CNC(=O)[C@H](CCCNC(=N)N)NC(=O)[C@H](CCCNC(=N)N)NC1=O)C(=O)N[C@@H](CCCNC(=N)N)C(=O)N2 [RTD-2] (cyclo(CLCRRGVCRCLCRRGVCR); disulfide 1-10, 3-8, 12-17)",substantially more effective than RTD-1,RTD-5>2>1>4>3,RTD-5>2>1>4>3,
"CC[C@H](C)[C@@H]1NC(=O)[C@@H]2CSSC[C@H](NC(=O)[C@H](CCCNC(=N)N)NC(=O)[C@@H]3CSSC[C@H](NC1=O)C(=O)N[C@@H]([C@@H](C)O)C(=O)N[C@@H](CCCNC(=N)N)C(=O)NCC(=O)N[C@@H](Cc1ccccc1)C(=O)N3)C(=O)N[C@@H]([C@@H](C)CC)C(=O)N[C@H]1CSSC[C@H](NC(=O)[C@H](Cc3ccccc3)NC(=O)CNC(=O)[C@H](CCCNC(=N)N)NC(=O)[C@H]([C@@H](C)O)NC1=O)C(=O)N[C@@H](CCCNC(=N)N)C(=O)N2 [RTD-3] (cyclo(CICTRGFCRCICTRGFCR); disulfide 1-10, 3-8, 12-17)",less active,RTD-5>2>1>4>3,RTD-5>2>1>4>3,
"CC[C@H](C)[C@@H]1NC(=O)CNC(=O)[C@H](CC(C)C)NC(=O)[C@H](C(C)C)NC(=O)[C@@H]2CSSC[C@H](NC1=O)C(=O)N[C@@H](CCCNC(=N)N)C(=O)N[C@H]1CSSC[C@H](NC(=O)[C@H](CCCNC(=N)N)NC(=O)[C@@H]3CSSC[C@H](NC(=O)[C@H]([C@@H](C)CC)NC1=O)C(=O)N[C@@H]([C@@H](C)O)C(=O)N[C@@H](CCCNC(=N)N)C(=O)NCC(=O)N[C@@H](Cc1ccccc1)C(=O)N3)C(=O)N[C@@H]([C@@H](C)CC)C(=O)N2 [RTD-4] (cyclo(CICTRGFCRCICVLGICR); disulfide 1-10, 3-8, 12-17)",less active,RTD-5>2>1>4>3,RTD-5>2>1>4>3,
"CC[C@H](C)[C@@H]1NC(=O)CNC(=O)[C@H](CC(C)C)NC(=O)[C@H](C(C)C)NC(=O)[C@@H]2CSSC[C@H](NC1=O)C(=O)N[C@@H](CCCNC(=N)N)C(=O)N[C@H]1CSSC[C@H](NC(=O)[C@H](CCCNC(=N)N)NC(=O)[C@@H]3CSSC[C@H](NC(=O)[C@H]([C@@H](C)CC)NC1=O)C(=O)N[C@@H](CCCNC(=N)N)C(=O)N[C@@H](CCCNC(=N)N)C(=O)NCC(=O)N[C@@H](C(C)C)C(=O)N3)C(=O)N[C@@H]([C@@H](C)CC)C(=O)N2 [RTD-5] (cyclo(CICRRGVCRCICVLGICR); disulfide 1-10, 3-8, 12-17)",substantially more effective than RTD-1,RTD-5>2>1>4>3,RTD-5>2>1>4>3,
"HNP-2: human neutrophil α-defensin purified from human neutrophils (CYCRIPACIAGERRYGTCIYQGRLWAFCC; ends and bridges not checked; cysteine pairing not given here; UniProt P59665 66-94, looked up) [reference compound]",,,,"effect on stimulated TNF release ([1]; E. coli-stimulated, 0–10 µg/ml peptide): no inhibitory effect; effect on stimulated TNF release (THP-1 monocytic cells; THP-1, 1 ng/ml K12 LPS): no inhibitory effect"
"LL-37: antimicrobial peptide derived from human cells (LLGDFFRKSKEKIGKEFKRIVQRIKDFLRNLVPRTES; Antibacterial peptide LL-37; UniProt P49913 134-170, looked up)",,,,protection against lethal bacteremia (lethal bacteremia): Protection
"PG-1: porcine protegrin (RGGRLCYCRRRFCVCVGR; ends and bridges not checked; cysteine pairing not given here; UniProt P32194 131-148, looked up)",,,,endotoxin-neutralizing effect (CLP sepsis): little endotoxin-neutralizing effect; therapeutic effect compared to vehicle control (CLP sepsis): no therapeutic effect
"indolicidin: antimicrobial peptide from ungulates (ILPWKWPWWPWRR; ends and bridges not checked; UniProt P33046 131-143, looked up)",,,,protection against lethal bacteremia (lethal bacteremia): Protection
